Read-outs that look alike come from different tables or passages of the source. Marks after values point to notes of the source that are not given here.
How the values were obtained:
WA09 hES cells [1] = system: WA09 hES cells
Method: Phase I hES Cell Compound Exposure. hES cells were treated with a test compound at a single concentration equivalent to the compound's published therapeutic Cmax. […] This was done to ensure that enough cells were present at the time of sample collection to provide a signal for LC-HRMS analysis. For test compound exposure, all compound stock solutions, with the exception of valproic acid, were made with DMSO (Sigma-Aldrich). […] Each 96-well plate included media controls with and without test compound, 0.1% DMSO solvent control cells and cells exposed to a single concentration of eight different test compounds (FIG. 1A). Media controls were included on each plate to assess the impact of test compound on the sample matrix. hES cells were exposed to the test compound for 72 hours, with media and test compound replacement every 24 hours. Cells were monitored throughout the treatment period to ensure that no differentiation was occurring. After 72 hours of treatment, the spent media from the final 24-hour treatment period was collected and added to acetonitrile (Sigma-Aldrich, final acetonitrile concentration 40%), to halt metabolic processes and precipitate proteins from solution. Individual wells from each 96-well plate were collected and analyzed as separate samples. These samples were then stored at −80° C. until prepared for LC-HRMS analysis. Cell viability was assessed using the CellTiter-Fluor Cell Viability Assay as per the manufacturer's instructions (Promega, Madison, Wis.). Quality control parameters were set such that if the coefficient of variation (CV) for the viability relative fluorescent units (RFU) of the 6 cellular samples in a treatment exceeded 10% and no outliers were identified using the Grubb's test (see the worldwide web at graphpad.com/quickcalcs/Grubbs1.cfm), analysis was halted for that compound and the cell culture experiment was repeated. If outliers were present, the outlier sample was removed from analysis. If the CV for the DMSO control cell samples on a plate were outside of the quality control parameters, the entire plate was repeated. hES cell exposure to each of the 23 compounds was replicated a total of nine times.
(§1) Phase 2 hES Cell Compound Exposure. […] The standard compound exposure levels used for most compounds were nine, 3-fold dilutions ranging from 0.04 μM-300 μM (FIG. 1B). […] The stock solution was diluted 1:1000 in mTeSR1 media and subsequent dilutions were performed in mTeSR1 containing 0.1% DMSO such that the final concentration of DMSO was 0.1% in all treatments. hES cells were treated for 72 hours and spent media from the last 24-hour treatment period was collected and added to acetonitrile containing ^13C6 labeled arginine (Cambridge Isotope Laboratories, Andover, Md.) as described under Phase 1. Spent media samples were stored at −80° C. until prepared for LC-HRMS analysis. Cell viability was assessed using the CellTiter-Fluor Cell Viability Assay. A quality control step was included with criteria that the CV of the measured viability RFU of the DMSO control cells could not exceed 10% for a plate to undergo LC-HRMS analysis. A dose response curve was fit to the reference treatment (0.1% DMSO treated control cells) normalized data (Viability RFUTrt X/Viability RFUDMSO) using a four-parameter log-logistic model with the R package “drc” (Ritz and Streibig, 2005, J Statistical Software; 12:1-22).
Phase 2 Prediction of Developmental Toxicity Potential. […] FIG. 2 illustrates how the assay is applied in this situation. A test compound is considered to be teratogenic at the exposure level where the o/c ratio exceeds the teratogenicity threshold (red box, FIG. 2).

Rodent = conditions: cited from earlier work; for Rodent in vivo test results: Embryotoxic: embryotoxic effect in the absence of teratogenic effects and maternal toxicity
WA09 hES cells [2] = test: Phase 2 targeted biomarker assay, ornithine/cystine ratio, 9-point dose response
Excerpt: Undifferentiated hES Cell Line Maintenance (Phases 1 and 2). WA09 hES cells were obtained from the WiCell Research Institute (Madison, Wis.) and were maintained in feeder free conditions using mTeSR1 media (StemCell Technologies, Inc., Vancouver, BC, Canada) on hESC-qualified Matrigel (BD Biosciences, San Jose, Calif.) coated 6-well plates. To maintain the undifferentiated stem cell population, differentiated colonies were removed daily through aspiration and media was replaced. Additionally, the hES cells were only used in experiments up to passage 40 and were karyotyped approximately every 10 passages to minimize and monitor the potential for genetic instability. hES cells were passaged at 90-95% confluency (approximately every 7 days) using Versene (Life Technologies, Grand Island, N.Y.). Cell cultures were maintained at 37° C. under 5% CO2.
96-well hES Cell Plating (Phases 1 and 2). All experimental treatments were carried out in 96-well plates. To minimize plating variability and increase reproducibility, hES cells were plated as a single cell suspension and maintained in an undifferentiated state during compound exposure. Prior to plating in the 96-well plates, hES cells were removed from a 6-well plate using TrypLE (Life Technologies). The cells were washed with DMEM/F12 (Life Technologies) and resuspended in mTeSR1 containing 10 μM Y27632 Rho-associated kinase (ROCK) inhibitor (Merck KGaA/Calbiochem, Darmstadt, Germany). The ROCK inhibitor is added to the plating media to increase plating efficiency by decreasing dissociation-induced apoptosis. The inner 60 wells of hESC-qualified Matrigel coated 96-well plates were seeded at a density of 100,000 cells per well. The outer wells of the plate contained an equal volume media to minimize differences in humidity across the plate. Compound exposure began 24 hours after plating.
as §1
Sample Preparation (Phases 1 and 2). High molecular weight constituents (>10 KDa) of the spent media samples were removed using a Millipore Multiscreen Ultracel-10 filter plate (EMD Millipore, Billerica, Mass.). Prior to sample filtration, the filter plate was washed with 0.1% NaOH to remove a known contaminant polymer. The plate was then rinsed twice with HPLC-grade water to remove residual polymers and NaOH. Spent media samples were added to the washed filter plate. In Phase 1, samples were spiked with ^13C6 labeled arginine. Samples were centrifuged at 2,000×g at 4° C. for 200 minutes. The filtrate was collected and concentrated overnight in a Savant High Capacity Speedvac Plus Concentrator.

Rabbit = conditions: cited from earlier work
rat whole embryo = conditions: cited from earlier work
[3] = summarized from TERIS and Briggs et al. 2011, cited from earlier work; for Preclinical in vivo developmental effects: application set compounds
[4] = system: mouse embryonic stem cell; conditions: cited from earlier work
Humans = conditions: cited from earlier work; for Humans (known human developmental toxicity): training and test set; for Known Effect: validation and test set treatments of Example 2
hES cells [5] = test: ADMA/cystine ratio simplified predictive model in hES cell spent media; type: cell-based, human; conditions: single dose per treatment; ratios less than 0.9 indicate teratogenicity
Excerpt: (§2) This simplified model is based on a ratio of the reference treatment (DMSO) normalized values of ADMA and cystine.
The X-axis is the reference normalized ratio of ADMA/Cystine. The y-axis is the training set of pharmaceuticals. Grey color with triangle glyphs represents teratogens and black color with circle glyphs represents non-teratogens. Each glyph point represents the media value of an independent experimental block (6 reps per block). The crosshair glyphs mark the sample medians. In FIG. 9, grey vertical line is threshold of teratogenicity, grey horizontal lines are the median absolute deviations, and black vertical line designates 1.0. The arrows at the bottom indicate the values used for differentiation of teratogens and nonteratogens, utilizing a cut off of 0.9 (grey line).

hES cells [6] = test: devTOX computational model predictions (Version 2.0, Version 2.1) from hES cell metabolomics; type: cell-based, human; conditions: single dose per treatment (Dose column)
Excerpt: The selection process weighted the predictive capacity of a feature, overall intensity, and peak shape to identify very well behaved features/metabolites that could be measured by targeted LC-MS or even by other detection systems.
as §2

[7] = cited from earlier work
[8] = application set, made using the therapeutic Cmax when available
[9] = test set, teratogenicity potential scored against therapeutic Cmax
[10] = training and test set, weak/moderate and strong teratogens both labeled teratogen
[11] = training set, therapeutic peak plasma in vivo concentration, human
[12] = application set, peak plasma concentration in humans

| Compound | Rodent prediction (Rodent; application set) | Targeted Biomarker Assay prediction (WA09 hES cells [2]; [8]) | Rabbit prediction (Rabbit; application set) | WEC prediction (rat whole embryo; application set) | Preclinical in vivo developmental effects [3] | mEST prediction ([4]; application set) | Humans (known human developmental toxicity) (Humans) | Known Effect (Humans) | Rodent prediction (Rodent; training and test set) | Rabbit prediction (Rabbit; training and test set) | Model Predictions ADMA/Cystine (hES cells [5]) | Model Predictions Version 2.0 (hES cells [6]) | Model Predictions Version 2.1 (hES cells [6]) | Viability Prediction (WA09 hES cells [1]) | Teratogenicity Potential (μM) Cell Viability (WA09 hES cells [1]; human, 72 h) | O/C Ratio Prediction (WA09 hES cells [2]) | Targeted Biomarker Assay prediction (WA09 hES cells [2]) | Teratogenicity Potential (μM) O/C Ratio (WA09 hES cells [2]; human, 72 h) | Preclinical in vivo and known human developmental effects ([3]; training set compounds) | Cmax [7, 11] | also measured |
| --- | --- | --- | --- | --- | --- | --- | --- | --- | --- | --- | --- | --- | --- | --- | --- | --- | --- | --- | --- | --- | --- |
| NC(=O)c1ccc(N)nc1 [6-Aminonicotinamide] | TER | TER | TER | TER^d | Craniofacial | TER^c | – | – | – | – | – | – | – | – | – | – | – | – | – | – | Teratogenicity Potential (μM) Cell Viability (WA09 hES cells [1]; application set, interpolated concentration where cell viability dose response curve crosses teratogenicity threshold 0.88, 72 hours): 24.5 µM; Rodent in vivo test results: Teratogenic (Rodent; application set, structural malformations in the absence of maternal toxicity): +^d; Teratogenicity Potential (μM) O/C Ratio (WA09 hES cells [2]; application set, interpolated concentration where o/c ratio dose response curve crosses teratogenicity threshold 0.88, 72 hours): <0.04 µM |
| Nc1nc(N)c2nc(CNc3ccc(C(=O)N[C@@H](CCC(=O)O)C(=O)O)cc3)cnc2n1 [Aminopterin] | – | – | – | – | – | – | TER | Ter | TER | TER | Ter | Ter | Ter | – | – | – | – | – | – | – | Teratogenicity Potential (μM) Cell Viability (WA09 hES cells [1]; test set, interpolated concentration where cell viability dose response curve crosses teratogenicity threshold 0.88, 72 hours): 0.01 µM; Viability Prediction (WA09 hES cells [1]; [9]): TER; Teratogenicity Potential (μM) O/C Ratio (WA09 hES cells [2]; test set, interpolated concentration where o/c ratio dose response curve crosses teratogenicity threshold 0.88, 72 hours): 0.01 µM; O/C Ratio Prediction (WA09 hES cells [2]; [9]): TER; Targeted Biomarker Assay prediction (WA09 hES cells [2]; training and test set, o/c ratio scored against therapeutic Cmax): TER; Preclinical in vivo and known human developmental effects ([3]; test set compounds): Craniofacial, limb, skeletal,; Cmax ([7]; test set, therapeutic peak plasma in vivo concentration, human): 300 nM |
| CS(=O)(=O)OCCCCOS(C)(=O)=O [Busulfan] | – | – | – | – | – | – | TER | Ter | TER | TER | Ter | Ter | Ter | TER | 3 µM | TER | TER | 0.6 µM | Craniofacial, limb, embryo | 49600 nM | Cytotoxicity at the Cmax exposure level (WA09 hES cells [1]; human, 72 h): greater than 30%; WEC prediction (rat whole embryo; [10]): TER^j; mEST prediction [4, 10]: TER^i |
| CNCCC(Oc1ccc(C(F)(F)F)cc1)c1ccccc1 (stereo not shown) [Fluoxetine] | TER | – | NON | NON^f,g | Embryo toxicity^c | TER^e | – | – | – | – | – | – | – | – | 23 µM | – | NON | 25.1 µM | – | – | Rodent in vivo test results: Embryotoxic (Rodent; application set): +; Cmax [7, 12]: 40 nM |
| N[C@@H](Cc1cc(I)c(Oc2cc(I)c(O)c(I)c2)c(I)c1)C(=O)O [Levothyroxine] | – | – | – | – | – | – | NON | Non | NON | NON | Non | Ter | Non | NON | >300 µM | NON | NON | 43.5 µM | None | 140 nM | – |
| CN(CCOc1ccc(CC2SC(=O)NC2=O)cc1)c1ccccn1 (stereo not shown) [Rosiglitazone] | TER | NON | TER | NON^h | Embryo toxicity^c | – | – | – | – | – | – | – | – | – | 21.8 µM | – | – | 18.9 µM | – | – | Rodent in vivo test results: Embryotoxic (Rodent; application set): +; Cmax [7, 12]: 1700 nM |
